Test results from patent US9012431B2, “Boron-containing small molecules as anti-inflammatory agents” (Anacor Pharmaceuticals, Inc., priority 2008, dated 2015).

Columns and labels:
[1] = tested on: IL-10; experiment: Cytokine assay, IL-10 release from PBMC; type: cell-based; details: human PBMC, 20 ug/mL PHA, supernatant at 48 hours
How it was run: (§1)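 Cytokine released into the medium was the read-out. Thawed human peripheral blood mononuclear cells in RPMI 1640/10% FBS received test article at 0.01–10 μM, in triplicate wells.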

[2] = tested on: IFN-γ; experiment: Cytokine assay, IFN-γ release from PBMC; type: cell-based; details: human PBMC, 20 ug/mL PHA, supernatant at 24 hours
How it was run: as §1

[3] = tested on: TNF-α; experiment: Cytokine assay, TNF-α release from PBMC; type: cell-based; details: Homo sapiens, PBMC, 24 h, 1 μg/mL LPS, supernatant at 24 hours
How it was run: as §1

[4] = tested on: IL-2; experiment: Cytokine assay, IL-2 release from PBMC; type: cell-based; details: human PBMC, 20 ug/mL PHA, supernatant at 24 hours
How it was run: as §1

[5] = tested on: BALB/c male mice; experiment: Oxazolone Induced Mouse Ear Edema Model; type: in vivo; details: for inhibition in vivo at 1 mg: 1 mg/ear × 2 topical; for inhibition in vivo at 3 mg: 3 mg/ear × 2 topical
Procedure: 2. In Vivo Anti-Inflammation Activity in Oxazolone Induced Mouse Ear Edema Model
Groups of 5 BALB/c male mice weighing 23±2 g were used. The preshaved abdomens of test animals were sensitized by application of 100 μl, of 1.5% oxazolone solution dissolved in acetone. Seven days after the initial sensitization, test substances, as well as vehicle (acetone:ethanol/1:1, 20 μL/ear) were each administered topically to the anterior and posterior surfaces of the right ear 30 minutes before, and 15 minutes after, challenge by a second application of oxazolone (1% in acetone, […]) via topical route. As a positive control, indomethacin (0.3 mg/ear×2) was administered topically using the same treatment regime as for the test compounds. Twenty-four hours after the second application of oxazolone, the ear thickness of each mouse was measured with a Dyer model micrometer gauge. A 30 percent or more inhibition in ear swelling relative to the vehicle control was considered significant and indicated possible anti-inflammatory activity.

[6] = tested on: IL-5; experiment: Cytokine assay, IL-5 release from PBMC; type: cell-based; details: human PBMC, 20 ug/mL PHA, supernatant at 48 hours
How it was run: as §1

[7] = tested on: T1, PDE4 partially purified from human U-937 myeloid leukemia cells; experiment: PDE4 Assay (enzyme from U-937 cells, [3H]cAMP); type: biochemical; details: PDE4 from U-937 cells, Tris buffer pH 7.5, 20 minutes at 25° C.
T1 construct: PDE4 partially purified from human U-937 myeloid leukemia cells was used

[8] = tested on: CD-1 (Crl.) derived male mice; experiment: Phorbol Ester Induced Mouse Ear Edema Model; type: in vivo; details: topical, 6 h; for inhibition in vivo at 1 mg: 1 mg/ear × 2 topical; for inhibition in vivo at 0.2 mg: 0.2 mg/ear × 2 topical; for inhibition in vivo at 3 mg: 3 mg/ear × 2 topical; for inhibition in vivo at 0.02 mg: 0.02 mg/ear × 2 topical; for inhibition in vivo at 0.06 mg: 0.06 mg/ear × 2 topical
Procedure: 1. In Vivo Anti-Inflammation Activity in Phorbol Ester Induced Mouse Ear Edema Model
[…] Dexamethasone (1 mg/ear×2) used as the positive control was administered topically to test animals using the same application schedule. Ear swelling was then measured by a Dyer model micrometer gauge at 6 hours after PMA application as an index of inflammation. Percent inhibition was calculated according to the formula: [(Ic−It)/Ic]×100%, where Ic and It refer to increase of ear thickness (mm) in control and treated mice, respectively.

[9] = Acetone:Ethanol/1:1, ear thickness 24 hours after second oxazolone application
[10] = Acetone:Ethanol/1:1, ear swelling 6 hours after PMA
[11] = 95% Ethanol, ear thickness 24 hours after second oxazolone application
[12] = vehicle not given, ear swelling 6 hours after PMA
[13] = 95% Ethanol, ear swelling 6 hours after PMA

SMILES	IC50 [1]	IC50 [2]	IC50 [3]	IC50 [4]	IC50 [6]	IC50 [7]	also measured
N#Cc1ccc(Oc2ccc3c(c2)COB3O)c(Cl)c1 [D4, 5-(2-Chloro-4-cyanophenoxy)-1,3-dihydro-1-hydroxy-2,1-benzoxaborole]	> 10000 nM	< 1000 nM	< 1000 nM	< 1000 nM	< 1000 nM	< 1000 nM	inhibition in vivo at 0.02 mg ([5]; 0.02 mg/ear × 2 topical, Acetone:Ethanol/1:1, ear thickness 24 hours after second oxazolone application): < 20%; inhibition in vivo at 1 mg [5, 9]: 30 to 40%
COc1cc(C#N)ccc1Oc1ccc2c(c1)COB2O [D15, 5-(4-Cyano-2-methoxyphenoxy)-1,3-dihydro-1-hydroxy-2,1-benzoxaborole]		< 1000 nM	< 1000 nM	< 1000 nM		< 1000 nM	inhibition in vivo at 1 mg [5, 9]: 40 to 60%; inhibition in vivo at 1 mg [8, 10]: 30 to 60%
CCOC(=O)COc1cc(C#N)ccc1Oc1ccc2c(c1)COB2O [D16, 5-[4-Cyano-2-(ethoxycarbonylmethoxy)phenoxy]-1,3-dihydro-1-hydroxy-2,1-benzoxaborole]		< 1000 nM	< 1000 nM	1000 to 4000 nM		< 1000 nM	inhibition in vivo at 3 mg [5, 11]: < 20%; inhibition in vivo at 0.2 mg [8, 10]: 60 to 90%; inhibition in vivo at 1 mg [8, 10]: 90 to 100%
CCOC(=O)c1ccc(Oc2ccc3c(c2)COB3O)nc1OCC [D27, Ethyl 2-ethoxy-6-(1-hydroxy-1,3-dihydrobenzo[c][1,2]oxaborol-5-yloxy)nicotinate]		< 1000 nM	< 1000 nM	< 1000 nM		< 1000 nM	inhibition in vivo at 3 mg [5, 11]: 20 to 30%
CCOC(=O)c1cnc(Oc2ccc3c(c2)COB3O)c(Cl)c1 [D48, Ethyl 5-chloro-6-(1-hydroxy-1,3-dihydrobenzo[c][1,2]oxaborol-5-yloxy)nicotinate]		< 1000 nM	< 1000 nM	< 1000 nM		< 1000 nM	inhibition in vivo at 0.2 mg ([5]; 0.2 mg/ear × 2 topical, Acetone:Ethanol/1:1, ear thickness 24 hours after second oxazolone application): < 20%; inhibition in vivo at 1 mg [5, 9]: 20 to 30%; inhibition in vivo at 0.2 mg [8, 10]: < 30%; inhibition in vivo at 1 mg [8, 10]: < 30%
CCCOC(=O)c1ccc(Oc2ccc3c(c2)COB3O)cc1 [D73, 4-(1-Hydroxy-1,3-dihydro-benzo[c][1,2]oxaborol-5-yloxy)-benzoic acid propyl ester]	> 10000 nM	4000 to 10000 nM	1000 to 4000 nM	1000 to 4000 nM	1000 to 4000 nM	< 1000 nM	inhibition in vivo at 1 mg [8, 12]: 30 to 60%; inhibition in vivo at 3 mg [8, 12]: 60 to 90%
COCCOc1nc(Oc2ccc3c(c2)COB3O)ccc1C#N [D86]	< 1000 nM	< 1000 nM	< 1000 nM	< 1000 nM	< 1000 nM	< 1000 nM	inhibition in vivo at 0.063 mg ([8]; 0.063 mg/ear × 2 topical, 95% Ethanol, ear swelling 6 hours after PMA): < 30%; inhibition in vivo at 0.21 mg ([8]; 0.21 mg/ear × 2 topical, 95% Ethanol, ear swelling 6 hours after PMA): < 30%; inhibition in vivo at 0.63 mg ([8]; 0.63 mg/ear × 2 topical, 95% Ethanol, ear swelling 6 hours after PMA): < 30%; inhibition in vivo at 3 mg [8, 13]: < 30%
CN(C)c1nc(Oc2ccc3c(c2)COB3O)ccc1C#N [D95, 2-Dimethylamino-6-(1-hydroxy-1,3-dihydro-benzo[c][1,2]oxaborol-5-yloxy)-nicotinonitrile]	1000 to 4000 nM	< 1000 nM	< 1000 nM	< 1000 nM	< 1000 nM	< 1000 nM	inhibition in vivo at 0.02 mg [8, 13]: < 30%; inhibition in vivo at 0.06 mg [8, 13]: < 30%; inhibition in vivo at 0.2 mg [8, 13]: < 30%
COCCN(C)c1nc(Oc2ccc3c(c2)COB3O)ccc1C#N [D96, 6-(1-hydroxy-1,3-dihydro-benzo[c][1,2]oxaborol-5-yloxy)-2-[(2-methoxy-ethyl)-methyl-amino]-nicotinonitrile]	1000 to 4000 nM	< 1000 nM	< 1000 nM	< 1000 nM	1000 to 4000 nM	< 1000 nM	inhibition in vivo at 1 mg [5, 9]: < 20%
CN(CCO)c1ccc(C#N)c(Oc2ccc3c(c2)COB3O)n1 [D98, 2-(1-hydroxy-1,3-dihydro-benzo[c][1,2]oxaborol-5-yloxy)-6-[(2-hydroxy-ethyl)-methyl-amino]-nicotinonitrile]	< 1000 nM	< 1000 nM	< 1000 nM	< 1000 nM	< 1000 nM	< 1000 nM	inhibition in vivo at 0.02 mg [8, 13]: < 30%; inhibition in vivo at 0.06 mg [8, 13]: < 30%; inhibition in vivo at 0.2 mg [8, 13]: 30 to 60%
N#Cc1ccc(Oc2ccc3c(c2)COB3O)nc1OC1CCCC1 [D100, 2-Cyclopentyloxy-6-(1-hydroxy-1,3-dihydro-benzo[c][1,2]oxaborol-5-yloxy)-nicotinonitrile]	< 1000 nM	< 1000 nM	< 1000 nM	< 1000 nM	< 1000 nM	< 1000 nM	inhibition in vivo at 0.028 mg ([8]; 0.028 mg/ear × 2 topical, 95% Ethanol, ear swelling 6 hours after PMA): < 30%; inhibition in vivo at 0.28 mg ([8]; 0.28 mg/ear × 2 topical, 95% Ethanol, ear swelling 6 hours after PMA): 30 to 60%
COCCNc1ccc(C#N)c(Oc2ccc3c(c2)COB3O)n1 [D101, 2-(1-Hydroxy-1,3-dihydro-benzo[c][1,2]oxaborol-5-yloxy)-6-(2-methoxy-ethylamino)-nicotinonitrile]	1000 to 4000 nM	< 1000 nM	< 1000 nM	< 1000 nM	< 1000 nM	< 1000 nM	inhibition in vivo at 0.8 mg ([8]; 0.8 mg/ear × 2 topical, 95% Ethanol, ear swelling 6 hours after PMA): < 30%; inhibition in vivo at 2.4 mg ([8]; 2.4 mg/ear × 2 topical, 95% Ethanol, ear swelling 6 hours after PMA): < 30%
COc1cc(Oc2ccc3c(c2)COB3O)ncc1C#N [D109, 6-(1-Hydroxy-1,3-dihydro-benzo[c][1,2]oxaborol-5-yloxy)-4-methoxy-nicotinonitrile]	< 1000 nM	< 1000 nM	< 1000 nM	< 1000 nM	< 1000 nM	< 1000 nM	inhibition in vivo at 0.02 mg [8, 13]: < 30%; inhibition in vivo at 0.067 mg ([8]; 0.067 mg/ear × 2 topical, 95% Ethanol, ear swelling 6 hours after PMA): < 30%; inhibition in vivo at 0.2 mg [8, 13]: < 30%
CNc1nc(Oc2ccc3c(c2)COB3O)ccc1C#N [D110, 6-(1-Hydroxy-1,3-dihydro-benzo[c][1,2]oxaborol-5-yloxy)-2-methylamino-nicotinonitrile]	> 10000 nM	< 1000 nM	< 1000 nM	< 1000 nM	< 1000 nM	< 1000 nM	inhibition in vivo at 0.02 mg [8, 13]: < 30%; inhibition in vivo at 0.06 mg [8, 13]: < 30%; inhibition in vivo at 0.2 mg [8, 13]: < 30%
COCCNc1nc(Oc2ccc3c(c2)COB3O)ccc1C#N [D111, 6-(1-Hydroxy-1,3-dihydro-benzo[c][1,2]oxaborol-5-yloxy)-2-(2-methoxy-ethylamino)-nicotinonitrile]			< 1000 nM				inhibition in vivo at 0.15 mg ([5]; 0.15 mg/ear × 2 topical, 95% Ethanol, ear thickness 24 hours after second oxazolone application): < 20%; inhibition in vivo at 0.015 mg ([8]; 0.015 mg/ear × 2 topical, 95% Ethanol, ear swelling 6 hours after PMA): < 30%; inhibition in vivo at 0.05 mg ([8]; 0.05 mg/ear × 2 topical, 95% Ethanol, ear swelling 6 hours after PMA): < 30%; inhibition in vivo at 0.15 mg ([8]; 0.15 mg/ear × 2 topical, 95% Ethanol, ear swelling 6 hours after PMA): < 30%; inhibition in vivo at 1 mg [8, 13]: < 30%
COc1nc(Oc2cc3c(cc2F)B(O)OC3)ccc1C#N [D122, 6-(6-Fluoro-1-hydroxy-1,3-dihydrobenzo[c][1,2]oxaborol-5-yloxy)-2-methoxynicotinonitrile]	< 1000 nM	< 1000 nM	< 1000 nM	< 1000 nM	< 1000 nM	< 1000 nM	inhibition in vivo at 1 mg [5, 9]: < 20%
COc1ccc2c(c1)c(CC(=O)O)c(C)n2C(=O)c1ccc(Cl)cc1 [Indomethacin, indomethacin, reference compound]							inhibition in vivo at 0.3 mg ([5]; 0.3 mg/ear × 2 topical, 95% Ethanol, ear thickness 24 hours after second oxazolone application): 40 to 60%
